Source: US20070093455A1, “10-substituted tetracyclines and methods of use thereof” (priority 2005, published 2007)
pIC50: −log10 of the molar value. In brackets after ≈: the same amount, converted by molar mass.

Assays:
[1] = system: S. aureus RN4250; assay: In vitro MIC assay, S. aureus RN4250; format: cell-based; conditions: Staphylococcus aureus, broth microdilution, 35° C., 18-24 hours
[2] = system: E. coli translation; assay: In vitro translation assay for inhibition of bacterial protein synthesis (E. coli S30 Extract System, luciferase); format: biochemical; conditions: 37° C., 1 hour, luciferase luminescence
Description: As a further measure of antibacterial activity, an E. coli S30 Extract System was used to quantitate inhibition of E. coli translation by tetracycline derivatives. This system contained all required components for translation, including a nucleic acid template which, when translated, produces functional luciferase. The reactions were set up with E. coli S30 extract, amino acids, DNA template and selected tetracycline compounds at concentrations of 100, 50, 25, 10, 5, and 1 μg/ml. The reactions were incubated at 37° C. for 1 hour and analyzed by adding the reaction mix to Steady-Glo Luciferase Assay substrate (Promega, Madison Wis.). Luminescence was measured with the Wallac Victor5 plate reader and inhibition is calculated by comparing luciferase activity in experimental reactions versus controls.

[3] = system: P. aeruginosa K1033; assay: In vitro MIC assay, P. aeruginosa K1033; format: cell-based; conditions: Pseudomonas aeruginosa, broth microdilution, 35° C., 18-24 hours
[4] = system: S. aureus RN450; assay: In vitro MIC assay, S. aureus RN450; format: cell-based; conditions: Staphylococcus aureus, broth microdilution, 35° C., 18-24 hours
[5] = system: E. coli (ATCC 25922); assay: In vitro MIC assay, E. coli (ATCC 25922); format: cell-based; conditions: Escherichia coli, ATCC25922; broth microdilution, 35° C., 18-24 hours
[6] = system: E. coli MG 1655 DWAK; assay: In vitro MIC assay, E. coli MG 1655 DWAK; format: cell-based; conditions: Escherichia coli, MG1655DWAK; broth microdilution, 35° C., 18-24 hours
Description: The following assay was used to determine the efficacy of tetracycline compounds against common bacteria. Serial dilutions of compounds were prepared in microdilution plates using a Tecan robotic workstation. Mueller Hinton broth cultures of gram negative and gram positive strains were grown or adjusted to match the turbidity of a 0.5 McFarland standard. 1:200 dilutions were made in appropriate broth (cation supplemented Mueller Hinton broth or Haemophilus test medium) to allow a final inoculum of 1×10^5 cfu. Lysed horse blood was used to supplement broth for testing S. pneumoniae. The plates were incubated at 35° C. in ambient air for 18-24 hours, read spectrophotometrically, and checked manually for evidence of bacterial growth. Serial dilutions of compounds were also added to Brucella agar supplemented with laked sheep blood for P. acnes tests. A standard inoculum was transferred to the plate using a stainless steel replicator. After 48 hours of anaerobic incubation at 35° C. plates were examined. The MIC was defined as the lowest concentration of the tetracycline compound that inhibits growth. Table 3 gives the MIC (μg/mL) of selected substituted tetracycline compounds against a variety of gram positive and gram negative bacteria.

[7] = system: S. aureus MRSA5; assay: In vitro MIC assay, S. aureus MRSA5; format: cell-based; conditions: Staphylococcus aureus, broth microdilution, 35° C., 18-24 hours
[8] = system: Mouse 3T3 fibroblast cells; assay: Phototoxicity assay (neutral red); format: cell-based; conditions: 3T3 cells
Description: Mouse 3T3 fibroblast cells were harvested and plated at a concentration of 1×10^5 cells/mL. Drug dilutions were made in HBSS and added to the plates. Duplicate plates were then incubated in the dark (for controls), or under UV light (meter reading of 1.6-1.8 mW/cm^2) for 50 minutes. Cells were then washed with HBSS, fresh medium was added, and plates were then incubated overnight. The following day, neutral red was added as an indicator of cell viability and plates were incubated for an additional 3 hours. Cells were then washed with HBSS and a solution of 50% EtOH, 10% glacial acetic acid is added. After a 20 minute incubation period, plates absorbance at 535 nm were read using a Wallac Victor 5 spectrophotometer. The phototoxicity in light-treated and control cultures was then compared.

[9] = system: S. pneumoniae 157E; assay: In vitro MIC assay, S. pneumoniae 157E; format: cell-based; conditions: Streptococcus pneumoniae, broth supplemented with lysed horse blood, 35° C., 18-24 hours
[10] = system: COS-1 or CHO cell; assay: Mammalian cell cytotoxicity assay (Resazurin; Alamar Blue); format: cell-based; conditions: COS-1 or CHO cells, 24 hour incubation
Description: To predict the in vivo risks associated with the compounds of the invention, a soluble, non-toxic redox dye (“Resazurin”; Alamar Blue) was used to assess a compound's effect on cellular metabolism. COS-1 or CHO cell suspensions were prepared, seeded into 96-well black-walled microtiter plates, and incubated overnight at 37° C., in 5% CO2 and approximately 95% humidity. On the next day, serial dilutions of test drug were prepared and transferred to cell plates. Following a 24 hour incubation period, the media/drug was aspirated, and 50 μL of resazurin was added. After a 2 hour incubation, fluorescence measurements were taken (excitation […], emission 590 nm) and toxic effects in treated versus control cells were compared based on the degree of fluorescence in each well.

[11] = system: H. influenza (ATCC 49247); assay: In vitro MIC assay, H. influenza (ATCC 49247); format: cell-based; conditions: read-out: MIC H. influenza (ATCC 49247)
[12] = system: P. acnes (PBS 1074); assay: In vitro MIC assay, P. acnes (PBS 1074); format: cell-based; conditions: Cutibacterium acnes; Brucella agar with laked sheep blood, 48 hours anaerobic, 35° C.
[13] = system: P. acnes (ATCC 11827); assay: In vitro MIC assay, P. acnes (ATCC 11827); format: cell-based; conditions: Cutibacterium acnes, ATCC11827; Brucella agar with laked sheep blood, 48 hours anaerobic, 35° C.
[14] = system: P. acnes (ATCC 6919); assay: In vitro MIC assay, P. acnes (ATCC 6919); format: cell-based; conditions: Cutibacterium acnes, ATCC6919; Brucella agar with laked sheep blood, 48 hours anaerobic, 35° C.
[15] = system: P. acnes (PBS 1073); assay: In vitro MIC assay, P. acnes (PBS 1073); format: cell-based; conditions: Cutibacterium acnes; Brucella agar with laked sheep blood, 48 hours anaerobic, 35° C.
[16] = system: B. theraiotaomicron (ATCC 29741); assay: In vitro MIC assay, B. theraiotaomicron (ATCC 29741); format: cell-based
[17] = system: P. acnes (ATCC 1077); assay: In vitro MIC assay, P. acnes (ATCC 1077); format: cell-based; conditions: Cutibacterium acnes, ATCC1077; Brucella agar with laked sheep blood, 48 hours anaerobic, 35° C.
[18] = system: B. fragilis (ATCC 25285); assay: In vitro MIC assay, B. fragilis (ATCC 25285); format: cell-based; conditions: Bacteroides fragilis, ATCC25285

CN(C)c1cccc2c1CC1CC3[C@@H](N(C)C)C(O)=C(C(N)=O)C(=O)[C@@]3(O)C(O)=C1C2=O (stereo partly shown) [C]
MIC [1]: 0 to 21 µg/mL
IC20 [2]: > 100 µM
pIC50 [2]: < 4.00
MIC [3]: 0 to 21 µg/mL
MIC [4]: 0 to 21 µg/mL
MIC [5]: 44 to 64 µg/mL (≈ 99.7 to 145 µM)
MIC [6]: 0 to 21 µg/mL
MIC [7]: 44 to 64 µg/mL (≈ 99.7 to 145 µM)
phototoxicity at 150 μM, incubated in the dark [8]: not to be appreciably phototoxic
MIC [9]: 0 to 21 µg/mL
cytotoxicity at 75 μg/mL [10]: minimal cytotoxicity
MIC [11]: 22 to 43 µg/mL (≈ 49.8 to 97.4 µM)

CN(C)c1cc2cc(-c3ccc(N)cc3)oc2c2c1CC1CC3[C@H](N(C)C)C(O)=C(C(N)=O)C(=O)[C@@]3(O)C(O)=C1C2=O (stereo partly shown) [Q]
MIC [1]: 0 to 21 µg/mL
IC20 [2]: < 100 µM
pIC50 [2]: > 4.00
MIC [4]: 0 to 21 µg/mL
MIC [7]: 0 to 21 µg/mL
MIC [9]: 22 to 43 µg/mL (≈ 38.4 to 75.1 µM)
MIC [11]: 44 to 64 µg/mL (≈ 76.8 to 112 µM)

CN(C)c1cc(C(=O)O)cc2c1CC1CC3[C@H](N(C)C)C(O)=C(C(N)=O)C(=O)[C@@]3(O)C(O)=C1C2=O (stereo partly shown) [D]
MIC [1]: 44 to 64 µg/mL (≈ 90.6 to 132 µM)
IC20 [2]: < 100 µM
pIC50 [2]: > 4.00
MIC [3]: 44 to 64 µg/mL (≈ 90.6 to 132 µM)
MIC [4]: 44 to 64 µg/mL (≈ 90.6 to 132 µM)
MIC [5]: 44 to 64 µg/mL (≈ 90.6 to 132 µM)
MIC [6]: 44 to 64 µg/mL (≈ 90.6 to 132 µM)
MIC [7]: 44 to 64 µg/mL (≈ 90.6 to 132 µM)
phototoxicity at 30 μM, incubated in the UV light ([8]; UV light 1.6-1.8 mW/cm^2, 30 μM): minimally phototoxic
phototoxicity at 150 μM, incubated in the dark [8]: not to be appreciably phototoxic
MIC [9]: 44 to 64 µg/mL (≈ 90.6 to 132 µM)
cytotoxicity at 75 μg/mL [10]: minimal cytotoxicity
MIC [11]: 44 to 64 µg/mL (≈ 90.6 to 132 µM)

NC(=O)C1=C(O)CC2CC3Cc4ccccc4C(=O)C3=C(O)[C@]2(O)C1=O (stereo partly shown) [F]
MIC [1]: 0 to 21 µg/mL
IC20 [2]: < 100 µM
pIC50 [2]: > 4.00
MIC [3]: 0 to 21 µg/mL
MIC [4]: 0 to 21 µg/mL
MIC [5]: 44 to 64 µg/mL (≈ 124 to 180 µM)
MIC [6]: 0 to 21 µg/mL
MIC [7]: 0 to 21 µg/mL
phototoxicity at 150 μM, incubated in the dark [8]: not to be appreciably phototoxic
MIC [9]: 22 to 43 µg/mL (≈ 61.9 to 121 µM)
MIC [11]: 0 to 21 µg/mL

CN(C)[C@H]1C(O)=C(C(N)=O)C(=O)[C@@]2(O)C(O)=C3C(=O)c4cccc(-c5ncccn5)c4CC3CC12 (stereo partly shown) [L]
MIC [1]: 0 to 21 µg/mL
MIC [12]: 28 to 32 µg/mL (≈ 58.8 to 67.2 µM)
MIC [13]: 0 to 8 µg/mL
MIC [14]: 0 to 8 µg/mL
MIC [15]: 28 to 32 µg/mL (≈ 58.8 to 67.2 µM)
MIC [3]: 0 to 21 µg/mL
MIC [16]: 28 to 32 µg/mL (≈ 58.8 to 67.2 µM)
MIC [4]: 0 to 21 µg/mL
MIC [5]: 22 to 43 µg/mL (≈ 46.2 to 90.2 µM)
MIC [6]: 0 to 21 µg/mL
MIC [7]: 0 to 21 µg/mL
MIC [17]: 28 to 32 µg/mL (≈ 58.8 to 67.2 µM)
MIC [9]: 0 to 21 µg/mL
cytotoxicity at 75 μg/mL [10]: minimal cytotoxicity
MIC [11]: 44 to 64 µg/mL (≈ 92.3 to 134 µM)
MIC [18]: 0 to 8 µg/mL

CC(=O)c1cc2c(c(N(C)C)c1)CC1CC3[C@H](N(C)C)C(O)=C(C(N)=O)C(=O)[C@@]3(O)C(O)=C1C2=O (stereo partly shown) [H]
MIC [1]: 44 to 64 µg/mL (≈ 91 to 132 µM)
IC20 [2]: < 100 µM
pIC50 [2]: > 4.00
MIC [3]: 22 to 43 µg/mL (≈ 45.5 to 88.9 µM)
MIC [4]: 44 to 64 µg/mL (≈ 91 to 132 µM)
MIC [5]: 44 to 64 µg/mL (≈ 91 to 132 µM)
MIC [6]: 22 to 43 µg/mL (≈ 45.5 to 88.9 µM)
MIC [7]: 44 to 64 µg/mL (≈ 91 to 132 µM)
phototoxicity at 150 μM, incubated in the dark [8]: not to be appreciably phototoxic
MIC [9]: 44 to 64 µg/mL (≈ 91 to 132 µM)
cytotoxicity at 75 μg/mL [10]: minimal cytotoxicity
MIC [11]: 44 to 64 µg/mL (≈ 91 to 132 µM)

CC(=O)c1cccc2c1C(=O)C1=C(O)[C@]3(O)C(=O)C(C(N)=O)=C(O)[C@@H](N(C)C)C3CC1C2 (stereo partly shown) [N]
MIC [1]: 44 to 64 µg/mL (≈ 99.9 to 145 µM)
IC20 [2]: < 100 µM
pIC50 [2]: > 4.00
MIC [3]: 0 to 21 µg/mL
MIC [4]: 22 to 43 µg/mL (≈ 49.9 to 97.6 µM)
MIC [5]: 44 to 64 µg/mL (≈ 99.9 to 145 µM)
MIC [6]: 0 to 21 µg/mL
MIC [7]: 44 to 64 µg/mL (≈ 99.9 to 145 µM)
MIC [9]: 44 to 64 µg/mL (≈ 99.9 to 145 µM)
cytotoxicity at 75 μg/mL [10]: minimal cytotoxicity
MIC [11]: 44 to 64 µg/mL (≈ 99.9 to 145 µM)
